The results in this text go back to patent US20220087987A1, “A METHOD FOR TREATING SWI/SNF COMPLEX-DEFICIENT CANCERS COMPRISING GLUTATHIONE (GSH) METABOLIC PATHWAY INHIBITOR” (National Cancer Center, priority 2018, published 2022).

Where a name gives a salt, the structure may show the parent alone. Read-outs that look alike come from different tables or passages of the source. Peptide text beside a SMILES is read from it. * marks the point of attachment. Cbz = O=C(OCc1ccccc1)*

Data set [1] deals with ARID1A-KO HCT116 cells. Kind of data set: Drug library screen, cell viability (CellTiter-Glo). The class given is cell-based, human. The following applies: Homo sapiens, HCT-116, 120 h, read-out: Cell viability, KO. In short, it runs like this:
(§1)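 ARID1A-WT and ARID1A-KO HCT116 cells screened against the library; viability read after 5 days by CellTiter-Glo luminescence, expressed relative to DMSO-treated cells. Hits: KO viability below 40% with WT viability above 80%.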

Assay in data set [2]: as above
Format: cell-based, human. The following applies: human; HCT116 ARID1A-WT; 10 μM for 5 days; relative to cells treated with solvent (DMSO); read-out: Cell viability, WT. In short, it runs like this: as §1

Setting [3] is: HCT116 ARID1A-KO, 10 μM for 5 days, relative to cells treated with solvent (DMSO).

Regarding `COc1cc2nc(N3CCCN(C)CC3)nc(NC3CCN(Cc4ccccc4)CC3)c2cc1OC` [BIX01294], the viability at 10 µM in data set [1] (setting [3]) is 4.49%. For the same molecule, in data set [2], the viability at 5 days, 10 μM was found to be 2.57%.
On the same counts, the results for `Cc1ccc2nc(NCCN)c3ncc(C)n3c2c1` [BMS-345541] are 19.7% and 11.9%.
For `NC(=O)c1ccc(I)c([N+](=O)[O-])c1` [BSI-201 (Iniparib), Iniparib], in that order: 93.3% and 63.5%.
In the case of `O=c1cc(-c2ccccc2)oc2cc(O)c(O)c(O)c12` [Baicalein], the viability at 10 µM in data set [1] (setting [3]) worked out at 93.7%. For the same molecule, in data set [2], the viability at 5 days, 10 μM worked out at 94.6%.
On the same counts, the results for `NC(=O)c1ccccc1` [Benzamide] are 134% and 188%.
For `CC(C)C[C@H](NC(=O)[C@@H](O)[C@H](N)Cc1ccccc1)C(=O)O` [Bestatin], in that order: 66.2% and 68.6%.
For `Cc1c[nH]c(-c2cnc(NCCNc3ccc(C#N)cn3)nc2-c2ccc(Cl)cc2Cl)n1` [CT99021], in that order: 73.5% and 63.8%.
On to `CC[C@@]1(O)C(=O)OCc2c1cc1n(c2=O)Cc2cc3ccccc3nc2-1` [Camptothecin], for which, in data set [1] (setting [3]), the viability at 10 µM came out at 4.03%. The viability at 5 days, 10 μM in data set [2] turned out to be 2.97%.
As for `C[C@@]12C(=O)OC(=O)[C@]1(C)[C@H]1CC[C@@H]2O1` [Cantharidin], the viability at 10 µM in data set [1] (setting [3]) turned out to be 18.2%. Also, the viability in data set [2] came out at 26.2%.
With `C/C=C/C/C=C/CCC(=O)[C@H]1O[C@H]1C(N)=O` [Cerulenin], the viability at 10 µM in data set [1] (setting [3]) is 68.6%. Besides, in data set [2], the viability at 5 days, 10 μM is 70%.
As for `CN1C(=O)[C@]2(Cc3cn([C@]45C[C@@]67SS[C@@](CO)(C(=O)N6[C@H]4Nc4ccccc45)N(C)C7=O)c4ccccc34)SS[C@@]1(CO)C(=O)N2C` [Chetomin], the viability at 10 µM in data set [1] (setting [3]) stood at 4.69%. Besides, the viability in data set [2] was 4.21%.
In the case of `CCOC(=O)C(C)(C)Oc1ccc(Cl)cc1` [Clofibrate], the viability at 10 µM in data set [1] (setting [3]) was 111%. In data set [2], the viability at 5 days, 10 μM came to 110%.
For `C[C@@H]1C[C@@H]([C@H](O)CC2CC(=O)NC(=O)C2)C(=O)[C@@H](C)C1` [Cycloheximide], the viability at 10 µM in data set [1] (setting [3]) was determined as 10.1%. The viability in data set [2] was found to be 9.33%.
As for `COc1c(C=O)c(O)cc2c1C(=O)c1ccccc1C2=O` [Damnacanthal], the viability at 10 µM in data set [1] (setting [3]) is 138%. Also, the viability at 5 days, 10 μM in data set [2] is 185%.
In the case of `COc1cccc2c1C(=O)c1c(O)c3c(c(O)c1C2=O)C[C@@](O)(C(C)=O)C[C@@H]3O[C@H]1C[C@H](N)[C@H](O)[C@H](C)O1` [Daunorubicin, HCl], the viability at 10 µM in data set [1] turned out to be 4.45%. Moreover, the viability at 5 days, 10 μM in data set [2] is 5.21%.
In the case of `NC1=N/C(=C2/CCNC(=O)c3[nH]ccc32)C(=O)N1` [Debromohymenialdisine (DBH), Debromohymenialdisine], in data set [1] (setting [3]), the viability at 10 µM stood at 72.2%. The viability at 5 days, 10 μM in data set [2] was found to be 62.9%.
Turning to `Nc1ncn([C@H]2C[C@H](O)[C@@H](CO)O2)c(=O)n1` [Decitabine], the viability at 10 µM in data set [1] (setting [3]) was 30.4%. For the same molecule, the viability at 5 days, 10 μM in data set [2] amounted to 30.8%.
As to `CCCCCCCCCCC1=C(C)C(=O)C(OC)=C(OC)C1=O` [Decylubiquinone], in data set [1] (setting [3]), the viability at 10 µM came to 100%. Also, the viability at 5 days, 10 μM in data set [2] turned out to be 85.7%.
With `OC[C@H]1NC[C@H](O)[C@@H](O)[C@@H]1O` [Deoxynojirimycin], the viability at 10 µM in data set [1] (setting [3]) came out at 121%. Further, the viability at 5 days, 10 μM in data set [2] was 106%.
Turning to `CN(N=O)c1cc(O)ccc1O` [Dephostatin], the viability at 10 µM in data set [1] (setting [3]) turned out to be 60.2%. Moreover, in data set [2], the viability is 90.4%.
As to `Cc1cc(N)c2ccccc2[n+]1CCCCCCCCCC[n+]1c(C)cc(N)c2ccccc21` [Dequalinium], the viability at 10 µM in data set [1] (setting [3]) came out at 5.24%. Besides, the viability at 5 days, 10 μM in data set [2] came out at 6.38%.
For `C[C@@H]1C[C@H]2[C@@H]3CCC4=CC(=O)C=C[C@]4(C)[C@@]3(F)[C@@H](O)C[C@]2(C)[C@@]1(O)C(=O)CO` [Dexamethasone], in that order: 162% and 212%.
For `O=c1c2ccccc2[nH]c(=S)n1CCN1CCC(=C(c2ccc(F)cc2)c2ccc(F)cc2)CC1` [Diacylglycerol kinase inhibitor II], in that order: 171% and 141%.
On to `CC1=NS(=O)(=O)c2cc(Cl)ccc2N1` [Diazoxide], for which the viability at 10 µM in data set [1] (setting [3]) is 115%. Also, the viability at 5 days, 10 μM in data set [2] was found to be 103%.
For `COc1ccc([C@@H]2Sc3ccccc3N(CCN(C)C)C(=O)[C@@H]2OC(C)=O)cc1` [Diltiazem], in that order: 115% and 102%.
For the molecule `COc1cccc2c1C(=O)c1c(O)c3c(c(O)c1C2=O)C[C@@](O)(C(=O)CO)C[C@@H]3O[C@H]1C[C@H](N)[C@H](O)[C@H](C)O1` [Doxorubicin, HCl], the viability at 10 µM in data set [1] (setting [3]) was found to be 4.14%. Moreover, the viability at 5 days, 10 μM in data set [2] was 4.81%.
For `Cc1cc(Nc2cc(N3CCN(C)CC3)nc(/C=C/c3ccccc3)n2)n[nH]1` [ENMD-2076], in that order: 10.1% and 9.16%.
For `O=c1oc2c(O)c(O)cc3c(=O)oc4c(O)c(O)cc1c4c23` [Ellagic acid], in that order: 161% and 127%.
Turning to `COc1cc([C@@H]2c3cc4c(cc3[C@@H](O[C@@H]3O[C@@H]5CO[C@@H](C)O[C@H]5[C@H](O)[C@H]3O)[C@H]3COC(=O)[C@H]23)OCO4)cc(OC)c1O` [Etoposide (VP-16), Etoposide], in data set [1] (setting [3]), the viability at 10 µM worked out at 27.4%. For the same molecule, the viability at 5 days, 10 μM in data set [2] was found to be 30.6%.
For `C=CC[C@@H]1/C=C(\C)C[C@H](C)C[C@H](OC)[C@H]2O[C@@](O)(C(=O)C(=O)N3CCCC[C@H]3C(=O)O[C@H](/C(C)=C/[C@@H]3CC[C@@H](O)[C@H](OC)C3)[C@H](C)[C@@H](O)CC1=O)[C@H](C)C[C@@H]2OC` [FK-506], in that order: 130% and 173%.
`CC(C)(C)NC(=O)[C@H]1CC[C@H]2[C@@H]3CC[C@H]4NC(=O)C=C[C@]4(C)[C@H]3CC[C@]12C` [Finasteride]: the viability at 10 µM in data set [1] (setting [3]) was found to be 108%. The viability at 5 days, 10 μM in data set [2] was determined as 99.6%.
For `CC(C)C(=O)Nc1ccc([N+](=O)[O-])c(C(F)(F)F)c1` [Flutamide], in that order: 126% and 163%.
As to `C[C@]12CCC(=O)C(O)=C1CC[C@@H]1[C@@H]2CC[C@]2(C)C(=O)CC[C@@H]12` [Formestane], the viability at 10 µM in data set [1] (setting [3]) came to 69.5%. Further, the viability in data set [2] is 108%.
On to `CO[C@@H]1[C@H](OC(=O)/C=C/C=C/C=C/C=C/C(=O)O)CC[C@]2(CO2)[C@H]1[C@@]1(C)O[C@@H]1CC=C(C)C` [Fumagillin], for which the viability at 10 µM in data set [1] worked out at 82.2%. The viability at 5 days, 10 μM in data set [2] is 96.4%.
Regarding `CNC(=O)[C@H](Cc1c[nH]c2ccccc12)NC(=O)[C@@H](CC(=O)NO)CC(C)C` [GM 6001], the viability at 10 µM in data set [1] (setting [3]) came out at 123%. The viability at 5 days, 10 μM in data set [2] was found to be 188%.
Consider `O=c1c(-c2ccc(O)cc2)coc2cc(O)cc(O)c12` [Genistein], for which the viability at 10 µM in data set [1] (setting [3]) stood at 118%. Besides, the viability in data set [2] worked out at 173%.
For `COc1ccc(Cl)cc1C(=O)NCCc1ccc(S(=O)(=O)NC(=O)NC2CCCCC2)cc1` [Glibenclamide], the viability at 10 µM in data set [1] (setting [3]) came to 109%. The viability at 5 days, 10 μM in data set [2] amounted to 108%.
Turning to `O=S(=O)(c1cccc2cnccc12)N1CCCNCC1` [HA1077], the viability at 10 µM in data set [1] (setting [3]) turned out to be 73.8%. Besides, the viability at 5 days, 10 μM in data set [2] is 155%.
On the same counts, the results for `NC(=O)NO` [Hydroxyurea] are 117% and 157%.
As for `C[C@H](CCC(=O)O)C[C@H](C)C[C@H](C)C(=O)/C=C(\O)[C@H](C)C[C@H](C)C/C=C/[C@@H](C)[C@@H](O)[C@@H](C)[C@@H](O)C[C@@H]1CC[C@@](C)([C@H]2CC[C@@](C)([C@@H](C)O)O2)O1` [Ionomycin], the viability at 10 µM in data set [1] (setting [3]) worked out at 35.9%. In addition, in data set [2], the viability came to 31.8%.
On the same counts, the results for `CC1=C2C(=O)[C@H]3[C@@H](CC=C4C[C@@H](O)CC[C@@]43C)[C@@H]2CC[C@]12O[C@@H]1C[C@H](C)CN[C@H]1[C@H]2C` [Jervine] are 90.1% and 74.4%.
For `O=C1Cc2c([nH]c3ccc(Br)cc23)-c2ccccc2N1` [Kenpaullone], the viability at 10 µM in data set [1] (setting [3]) is 35%. Also, the viability at 5 days, 10 μM in data set [2] turned out to be 66.2%.
For `CC(=O)N[C@@H](CSC(=O)[C@]1([C@@H](O)C(C)C)NC(=O)[C@H](C)[C@@H]1O)C(=O)O` [Lactacystin], in that order: 26.1% and 32.6%.
On the same counts, the results for `O=C(O)c1nn(Cc2ccc(Cl)cc2Cl)c2ccccc12` [Lonidamine] are 116% and 98.4%.
Turning to `CC[C@H](C)C(=O)O[C@H]1C[C@@H](C)C=C2C=C[C@H](C)[C@H](CC[C@@H]3C[C@@H](O)CC(=O)O3)[C@H]21` [Lovastatin], the viability at 10 µM in data set [1] (setting [3]) is 85.2%. For the same molecule, the viability at 5 days, 10 μM in data set [2] is 132%.
For `CNC(=O)c1ccc(N2C(=S)N(c3ccc(C#N)c(C(F)(F)F)c3)C(=O)C2(C)C)cc1F` [MDV3100], in that order: 94.9% and 88.8%.
For the molecule `CC(C)C[C@@H](C=O)NC(=O)[C@H](CC(C)C)NC(=O)[C@H](CC(C)C)NC(=O)OCc1ccccc1` [MG-132] (Cbz-Leu-Leu-Leu-aldehyde), the viability at 10 µM in data set [1] (setting [3]) was found to be 2.45%. In data set [2], the viability worked out at 3.45%.
As to `NC(=O)c1cccc2cn(-c3ccc([C@@H]4CCCNC4)cc3)nc12` [MK-4827 (Niraparib), Niraparib], in data set [1] (setting [3]), the viability at 10 µM was determined as 28.7%. The viability at 5 days, 10 μM in data set [2] was found to be 29.3%.
